Experimental data reported in PubChem BioAssay (NCI).
Values joined by “and” are separate entries in the source; they are usually repeats but may differ in a detail not shown here. Identical values can stand only once.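 Compound exposure: 48 hours, 5 concentrations, 96-well plates. GI50: concentration for 50% inhibition of growth. TGI: total growth inhibition.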

Tests used:
Test in all cases: NCI-60 cell line screen, 48 h
COLO 205 colon = tested on: COLO 205 colon
HL-60(TB) leukemia = tested on: HL-60(TB) leukemia
M14 melanoma = tested on: M14 melanoma
SF-539 CNS = tested on: SF-539 CNS
NCI-H522 lung = tested on: NCI-H522 lung
A549 NSCLC = tested on: A549 NSCLC
SK-OV-3 ovarian = tested on: SK-OV-3 ovarian
786-0 renal = tested on: 786-0 renal
NCI/ADR-RES ovarian = tested on: NCI/ADR-RES ovarian
HS 578T breast = tested on: HS 578T breast

## CCOC(=O)N1C/C(=C\c2ccc(N(C)C)cc2)C(=O)/C(=C/c2ccc(N(C)C)cc2)C1
COLO 205 colon
  TGI: > 100 µM
HL-60(TB) leukemia
  TGI: > 100 µM
M14 melanoma
  TGI: > 100 µM
SF-539 CNS
  TGI: > 100 µM
NCI-H522 lung
  TGI: > 100 µM
A549 NSCLC
  TGI: > 100 µM
SK-OV-3 ovarian
  TGI: > 100 µM
786-0 renal
  TGI: > 100 µM

## NNC(=O)C(=O)N/N=C1\CCCC1C(=O)CCC(=O)Nc1cccc(Cl)c1 (centres undefined)
COLO 205 colon
  TGI: > 100 µM
HL-60(TB) leukemia
  TGI: > 100 µM
M14 melanoma
  TGI: > 100 µM
A549 NSCLC
  TGI: > 100 µM
786-0 renal
  TGI: > 100 µM

## COC(=O)N1C=CC2=C(C)C3Nc4ccccc4C3C(C)=C2C1 (centres undefined)
COLO 205 colon
  TGI: 6.66 µM
HL-60(TB) leukemia
  TGI: 11.9 µM
M14 melanoma
  TGI: 8.29 µM
SF-539 CNS
  TGI: 17.2 µM
NCI-H522 lung
  TGI: 10.7 µM
A549 NSCLC
  TGI: 16.8 µM
SK-OV-3 ovarian
  TGI: 8.71 µM
786-0 renal
  TGI: 2.16 µM

## CCOC(=O)c1ccc(N[C@@H]2c3cc4c(cc3C(c3cc(OC)c(O)c(OC)c3)[C@H]3C(=O)OCC32)OCO4)cc1 (some centres undefined)
NCI/ADR-RES ovarian
  TGI: 6.41 µM
COLO 205 colon
  GI50: 0.833 µM
  TGI: 7.68 µM
HL-60(TB) leukemia
  GI50: 0.0114 µM
  TGI: 0.282 µM and 0.889 µM
M14 melanoma
  GI50: 0.353 µM
  TGI: 4.32 µM
SF-539 CNS
  GI50: 0.34 µM
  TGI: 0.951 µM and 1.97 µM
NCI-H522 lung
  GI50: 0.395 µM and 1.28 µM
  TGI: 4.98 µM
A549 NSCLC
  GI50: 0.103 µM
  TGI: 2.76 µM
SK-OV-3 ovarian
  GI50: 0.37 µM
  TGI: 5.16 µM
786-0 renal
  GI50: 0.199 µM and 0.492 µM
  TGI: 0.66 µM and 2.12 µM

## CCCCCCCCCCCCNC(=S)OCCCC
HL-60(TB) leukemia
  TGI: 40.4 µM
M14 melanoma
  TGI: > 100 µM
SF-539 CNS
  TGI: > 100 µM
NCI-H522 lung
  TGI: > 100 µM
A549 NSCLC
  TGI: > 100 µM
SK-OV-3 ovarian
  TGI: > 100 µM
786-0 renal
  TGI: > 100 µM

## O=c1oc2cc(O)ccc2cc1-c1nc2ccccc2o1
NCI/ADR-RES ovarian
  TGI: > 100 µM
COLO 205 colon
  TGI: 80.3 µM
HL-60(TB) leukemia
  TGI: 70.6 µM
M14 melanoma
  TGI: > 100 µM
SF-539 CNS
  TGI: > 100 µM
NCI-H522 lung
  TGI: 56.1 µM
HS 578T breast
  TGI: > 100 µM
A549 NSCLC
  TGI: > 100 µM
786-0 renal
  TGI: > 100 µM

## NC(=O)c1c(-c2ccccc2)c(-c2ccccc2)cc2c(=O)c3ccccc3[nH]c12
COLO 205 colon
  TGI: > 100 µM
M14 melanoma
  TGI: > 100 µM
SF-539 CNS
  TGI: 37.4 µM
NCI-H522 lung
  TGI: 20 µM
A549 NSCLC
  TGI: 50.6 µM
SK-OV-3 ovarian
  TGI: 54.2 µM
786-0 renal
  TGI: 21.5 µM

## CC[C@@]1(O)C(=O)OCc2c1cc1n(c2=O)Cc2cc3c(N)c(OC)ccc3nc2-1
COLO 205 colon
  GI50: 0.263 µM
  TGI: 2.69 µM
HL-60(TB) leukemia
  GI50: 0.0266 µM
  TGI: 0.187 µM
M14 melanoma
  GI50: 0.0403 µM
  TGI: 0.339 µM
SF-539 CNS
  GI50: 0.0139 µM
  TGI: 0.0932 µM
NCI-H522 lung
  GI50: 0.0434 µM
  TGI: 1.31 µM
A549 NSCLC
  GI50: 0.0445 µM
  TGI: 1.91 µM
SK-OV-3 ovarian
  GI50: 0.0582 µM
  TGI: 2.29 µM
786-0 renal
  GI50: < 0.0157 µM
  TGI: 0.0738 µM

## O=S(=O)(c1ccccc1)C1(C2(S(=O)(=O)c3ccccc3)CCN=N2)CCN=N1 (centres undefined)
COLO 205 colon
  TGI: > 100 µM
HL-60(TB) leukemia
  TGI: > 100 µM
M14 melanoma
  TGI: > 100 µM
SF-539 CNS
  TGI: > 100 µM
NCI-H522 lung
  TGI: > 100 µM
A549 NSCLC
  TGI: > 100 µM
SK-OV-3 ovarian
  TGI: > 100 µM
786-0 renal
  TGI: > 100 µM

## O=[N+]([O-])C(=C1c2ccccc2-c2ccccc21)[N+](=O)[O-]
COLO 205 colon
  TGI: > 100 µM
HL-60(TB) leukemia
  TGI: 98.9 µM
M14 melanoma
  TGI: > 100 µM
SF-539 CNS
  TGI: > 100 µM
NCI-H522 lung
  TGI: > 100 µM
A549 NSCLC
  TGI: > 100 µM
786-0 renal
  TGI: > 100 µM

## Cc1ccc(C)c(NC(=O)C(=O)C(C2C(C)CC(=O)C2CC(=O)O)[N+](=O)[O-])c1 (centres undefined)
COLO 205 colon
  TGI: > 100 µM
HL-60(TB) leukemia
  TGI: > 100 µM
M14 melanoma
  TGI: > 100 µM
SF-539 CNS
  TGI: > 100 µM
A549 NSCLC
  TGI: > 100 µM
SK-OV-3 ovarian
  TGI: > 100 µM
786-0 renal
  TGI: > 100 µM

## CN1C=C(C(N)=O)Cc2ccsc21
COLO 205 colon
  TGI: > 100 µM
HL-60(TB) leukemia
  TGI: > 100 µM
M14 melanoma
  TGI: > 100 µM
SF-539 CNS
  TGI: > 100 µM
NCI-H522 lung
  TGI: > 100 µM
A549 NSCLC
  TGI: > 100 µM
SK-OV-3 ovarian
  TGI: > 100 µM
786-0 renal
  TGI: > 100 µM

## O=S(=O)([O-])c1ccc(C=Nc2ccccc2)c([O-])c1.O=S(=O)([O-])c1ccc(C=Nc2ccccc2)c([O-])c1.[Co+2]
COLO 205 colon
  GI50: 70.5 µM
  TGI: > 100 µM
HL-60(TB) leukemia
  GI50: 2.7 µM
  TGI: > 100 µM
M14 melanoma
  GI50: 6.5 µM
  TGI: > 100 µM
SF-539 CNS
  GI50: 32.6 µM
  TGI: > 100 µM
NCI-H522 lung
  GI50: > 100 µM
  TGI: > 100 µM
A549 NSCLC
  GI50: 55.2 µM
  TGI: > 100 µM
SK-OV-3 ovarian
  GI50: > 100 µM
  TGI: > 100 µM
786-0 renal
  GI50: 94.7 µM
  TGI: > 100 µM

## Nc1ncnc2c1ncn2C1(CO)OC(CO)C(O)C1O (centres undefined)
COLO 205 colon
  TGI: > 100 µM
HL-60(TB) leukemia
  TGI: > 100 µM
M14 melanoma
  TGI: > 100 µM
NCI-H522 lung
  TGI: > 100 µM
A549 NSCLC
  TGI: > 100 µM
SK-OV-3 ovarian
  TGI: > 100 µM
786-0 renal
  TGI: > 100 µM

## CCOC(=O)C(c1ccsc1)P(=O)(OCC)OCC (centres undefined)
COLO 205 colon
  TGI: 26.7 µM
M14 melanoma
  TGI: 26.3 µM
SF-539 CNS
  TGI: 30.2 µM
NCI-H522 lung
  TGI: 16.9 µM
A549 NSCLC
  TGI: 55.8 µM
SK-OV-3 ovarian
  TGI: 77.2 µM
786-0 renal
  TGI: 31.7 µM

## CC(C)CC1CC2C(=O)N(c3ccccc3)C(=O)C2c2[nH]c3ccccc3c21 (centres undefined)
COLO 205 colon
  TGI: > 100 µM
HL-60(TB) leukemia
  TGI: > 31.6 µM
M14 melanoma
  TGI: > 100 µM
SF-539 CNS
  TGI: 99.4 µM
NCI-H522 lung
  TGI: > 100 µM
A549 NSCLC
  TGI: > 53.8 µM
SK-OV-3 ovarian
  TGI: 43.6 µM
786-0 renal
  TGI: > 100 µM

## COc1ccc(-c2cc(-c3ccco3)c(C#N)c(=O)n2C2OC(COC(C)=O)C(OC(C)=O)C(OC(C)=O)C2OC(C)=O)cc1 (centres undefined)
COLO 205 colon
  TGI: > 100 µM
M14 melanoma
  GI50: > 100 µM and 23.2 µM
  TGI: > 100 µM and 52.5 µM
SF-539 CNS
  GI50: > 100 µM and 11.7 µM
  TGI: > 100 µM and 23.9 µM
NCI-H522 lung
  GI50: 42.8 µM and 11 µM
  TGI: > 100 µM and 60.4 µM
A549 NSCLC
  TGI: > 100 µM
SK-OV-3 ovarian
  GI50: > 100 µM and 28.1 µM
  TGI: > 100 µM and 64.5 µM
786-0 renal
  GI50: > 100 µM and 29.3 µM
  TGI: > 100 µM

## C=CCC(NCc1ccccc1)c1cn(C(=O)OCC)c2ccccc12 (centres undefined)
NCI/ADR-RES ovarian
  GI50: 21.4 µM
  TGI: 52.1 µM
COLO 205 colon
  GI50: 28 µM
  TGI: > 100 µM
M14 melanoma
  GI50: 18.6 µM
  TGI: 39.2 µM
SF-539 CNS
  GI50: 5.47 µM
  TGI: 18.8 µM
NCI-H522 lung
  GI50: 19.8 µM
  TGI: 42.6 µM
HS 578T breast
  GI50: 20 µM
  TGI: 63.8 µM
A549 NSCLC
  GI50: 31.5 µM
  TGI: > 100 µM
SK-OV-3 ovarian
  GI50: 44.7 µM
  TGI: > 100 µM
786-0 renal
  GI50: 18.7 µM
  TGI: 38.8 µM

## O=C1C=C(c2ccccc2)NC1(c1ccccc1)c1cc(-c2ccccc2)[nH]c1-c1ccccc1 (centres undefined)
COLO 205 colon
  TGI: > 100 µM
HL-60(TB) leukemia
  TGI: > 100 µM
M14 melanoma
  TGI: > 100 µM
SF-539 CNS
  TGI: > 100 µM
A549 NSCLC
  TGI: > 100 µM
SK-OV-3 ovarian
  TGI: > 100 µM
786-0 renal
  TGI: > 100 µM

## Cc1ncc2c(n1)CCC1=C2OS(=O)(=O)CC1N(C)C (centres undefined)
COLO 205 colon
  TGI: > 100 µM
HL-60(TB) leukemia
  TGI: > 100 µM
M14 melanoma
  TGI: > 100 µM
SF-539 CNS
  TGI: > 100 µM
NCI-H522 lung
  TGI: > 100 µM
HS 578T breast
  TGI: > 100 µM
A549 NSCLC
  TGI: > 100 µM
SK-OV-3 ovarian
  TGI: > 100 µM
786-0 renal
  TGI: > 100 µM

## CCCOC(=O)C1C(c2ccc(OC)cc2)NC(c2ccc(OC)cc2)C(C(=O)OCCC)S1(=O)=O (centres undefined)
COLO 205 colon
  GI50: > 100 µM
  TGI: > 100 µM
HL-60(TB) leukemia
  TGI: > 100 µM
M14 melanoma
  GI50: > 100 µM
  TGI: > 100 µM
SF-539 CNS
  GI50: > 100 µM
  TGI: > 100 µM
NCI-H522 lung
  GI50: > 100 µM
  TGI: > 100 µM
A549 NSCLC
  GI50: > 100 µM
  TGI: > 100 µM
SK-OV-3 ovarian
  TGI: > 100 µM
786-0 renal
  GI50: > 100 µM
  TGI: > 100 µM

## O=C(O)CC(CC(=O)O)n1cccc1
NCI/ADR-RES ovarian
  TGI: > 100 µM
COLO 205 colon
  TGI: > 100 µM
HL-60(TB) leukemia
  TGI: > 100 µM
M14 melanoma
  TGI: > 100 µM
SF-539 CNS
  TGI: > 100 µM
NCI-H522 lung
  TGI: > 100 µM
A549 NSCLC
  TGI: > 100 µM
SK-OV-3 ovarian
  TGI: > 100 µM
786-0 renal
  TGI: > 100 µM
